The record followed here is US20260062422A1 (Halda Therapeutics OpCo, Inc., priority 2022, published 2026).

Some results are limits rather than exact numbers.

The assay concerns T47D cells. Put plainly: Cellular growth inhibition assay for T47D cells, CellTiter-Glo. The assay is classed as cell-based, human. The following applies: 72 hours treatment, CellTiter-Glo 2.0 cell viability. The protocol: T47D cells were purchased from American Type Cell Culture (ATCC Cat #HTB-133) and then seeded on poly-D-lysine coated, black clear-bottom 384-well plates at 3000/well in 25 μL Dulbecco's Modified Eagle Medium (DMEM) supplemented with 10% w/w Fetal bovine serum (FBS), 0.2 units/mL recombinant human insulin (Gibco Cat #12585014), and 1% w/w Pen-Strep. Pen-Strep is a commercially available mixture of penicillin G and streptomycin, which is used in mammalian cell culture media to prevent bacterial contamination. Dulbecco's Modified Eagle Medium (DMEM) supplemented with 10% w/w fetal bovine serum (FBS), 0.2 units/mL recombinant human insulin, and 1% w/w Pen-Strep is herein referred to as Treatment Medium. Following seeding of cells in the plates, the plates were spun at 300×g for 30 seconds, then equilibrated to room temperature for 30 minutes, and then deposited in a humidified tissue culture incubator maintained at 37° C. with 5% CO2.
At 24 hours after seeding of the cells, dilutions of test compound were prepared in DMSO and dissolved in Treatment Medium, to achieve a final DMSO concentration of 0.5% w/w, thereby providing the Test Compound Solution. A 25 μL aliquot of the Test Compound Solution was added to cells in the well plates. An equal volume of a solution containing DMSO and Treatment Medium was used as a negative control. Following treatment of cells with Test Compound Solution or said equal volume of a solution containing DMSO and Treatment Medium, the plates were spun at 300×g for 30 seconds, and then left in an incubator for 72 hours.
At the end of the treatment duration, cell viability was quantified with CellTiter-Glo 2.0 reagent (Promega Cat #G9243). For this purpose, plates were equilibrated to room temperature for 30 minutes, and then 25 μL of CellTiter-Glo 2.0 reagent was added to cells in the plate wells. Plates were then agitated on a shaker for two minutes at 500 rpm and subsequently incubated at room temperature for 10 minutes. Following incubation, the plates were spun at 3000×g for 30 seconds, then sealed with an optical adhesive cover, and luminescence readings were measured with an EnVision Plate Reader (Perkin Elmer).
Data was normalized using zero luminescence for baseline. A four-parameter non-linear regression curve fit was applied to dose-response data in GraphPad Prism data analysis software to determine the half-maximal growth inhibitory concentration (GI50) for each test compound.

For the setting “Homo sapiens, T47D, 72 h”, `Cc1sc2c(c1C)C(c1ccc(N3CC(C4CCN(c5cnc(C(=O)N[C@H]6C(C)(C)[C@H](Oc7ccc(C#N)c(Cl)c7)C6(C)C)cn5)CC4)C3)cc1)=N[C@@H](C)c1nnc(C)n1-2` [Compound I-490] had a GI50 of 0.5 to 1.5 µM. `Cc1sc2c(c1C)C(c1ccc(C3CC(CC4CCN(c5ncc(C(=O)N[C@H]6C(C)(C)[C@H](Oc7ccc(C#N)c(Cl)c7)C6(C)C)cn5)CC4)C3)cc1)=NC(C)c1nnc(C)n1-2` (stereo partly drawn) [Compound I-508]: the GI50 lay within 0.5 to 1.5 µM. In turn, `Cc1sc2c(c1C)C(c1ccc(OC3CC4(C3)CC3(CCN(c5ncc(C(=O)N(C)[C@H]6C(C)(C)[C@H](Oc7ccc(C#N)c(Cl)c7)C6(C)C)cn5)CC3)C4)cc1)=N[C@@H](Cc1ncco1)c1nnc(C)n1-2` [Compound I-592] came in with a GI50 (Homo sapiens, T47D, 72 h) of under 0.5 µM. The molecule `Cc1sc2c(c1C)C(c1ccc([C@@H]3C[C@H]3C3CC4(CCN(c5cnc(C(=O)N[C@H]6C(C)(C)[C@H](Oc7ccc(C#N)c(Cl)c7)C6(C)C)cn5)CC4)C3)cc1)=N[C@@H](Cc1ncco1)c1nnc(C)n1-2` [Compound I-519] yielded a GI50 of over 3 µM. Still for that read-out and setting: for `Cc1sc2c(c1C)C(c1ccc(C3CC3C3CC4(CCN(c5cnc(C(=O)N[C@H]6C(C)(C)[C@H](Oc7ccc(C#N)c(Cl)c7)C6(C)C)cn5)CC4)C3)cc1)=NC(Cc1ncco1)c1nnc(C)n1-2` (stereo partly drawn) [Compound I-541] the value was under 0.5 µM; for `Cc1sc2c(c1C)C(c1ccc(C3CC(CC4CCN(c5ncc(C(=O)N[C@H]6C(C)(C)[C@H](Oc7ccc(C#N)c(Cl)c7)C6(C)C)cn5)CC4)C3)cc1)=NC(C)c1nnc(C)n1-2` (stereo partly drawn) [Compound I-509], under 0.5 µM.

For the molecule `Cc1sc2c(c1C)C(c1ccc(-n3cnc(C4CCN(c5ncc(C(=O)N[C@H]6C(C)(C)[C@H](Oc7ccc(C#N)c(Cl)c7)C6(C)C)cn5)CC4)n3)cc1)=N[C@@H](Cc1ncco1)c1nnc(C)n1-2` [Compound I-497], the GI50 (Homo sapiens, T47D, 72 h) was under 0.5 µM. In turn, `Cc1sc2c(c1C)C(c1ccc(C3CC3C3CC4(CCN(c5cnc(C(=O)N[C@H]6C(C)(C)[C@H](Oc7ccc(C#N)c(Cl)c7)C6(C)C)cn5)CC4)C3)cc1)=NC(Cc1ncco1)c1nnc(C)n1-2` (stereo partly drawn) [Compound I-540] showed a 50% growth inhibitory concentration (GI50) of under 0.5 µM. As for `Cc1sc2c(c1C)C(c1ccc(N3CC(C4CCN(c5ccc(C(=O)N[C@H]6C(C)(C)[C@H](Oc7ccc(C#N)c(Cl)c7)C6(C)C)cn5)CC4)C3)cc1)=N[C@@H](C)c1nnc(C)n1-2` [Compound I-551], the GI50 (Homo sapiens, T47D, 72 h) is under 0.5 µM. As for `Cc1sc2c(c1C)C(c1ccc(C#CC3CC(Cc4ncc(C(=O)N[C@H]5C(C)(C)[C@H](Oc6ccc(C#N)c(Cl)c6)C5(C)C)cn4)C3)cc1)=NC(Cc1ncco1)c1nnc(C)n1-2` (stereo partly drawn) [Compound I-559], the 50% growth inhibitory concentration (GI50) is 0.5 to 1.5 µM. `Cc1sc2c(c1C)C(c1ccc(C3CC3C3CC4(CCN(c5cnc(C(=O)N[C@H]6C(C)(C)[C@H](Oc7ccc(C#N)c(Cl)c7)C6(C)C)cn5)CC4)C3)cc1)=N[C@@H](C)c1nnc(C)n1-2` (stereo partly drawn) [Compound I-535] gave a GI50 (Homo sapiens, T47D, 72 h) of over 3 µM. As for `Cc1sc2c(c1C)C(c1ccc(OCC3CC4(CCCN(c5ncc(C(=O)N[C@H]6C(C)(C)[C@H](Oc7ccc(C#N)c(Cl)c7)C6(C)C)cn5)C4)C3)cc1)=NC1(CC1)c1nnc(C)n1-2` [Compound I-499], under “Homo sapiens, T47D, 72 h”, the GI50 was over 3 µM.

For `Cc1sc2c(c1C)C(c1ccc(OCC3CC4(CCCN(c5ncc(C(=O)N[C@H]6C(C)(C)[C@H](Oc7ccc(C#N)c(Cl)c7)C6(C)C)cn5)C4)C3)cc1)=NC1(CC1)c1nnc(C)n1-2` [Compound I-500], the GI50 was over 3 µM. With `Cc1sc2c(c1C)C(c1ccc(N3CC(C4CCN(c5ccc(C(=O)N[C@H]6C(C)(C)[C@H](Oc7ccc(C#N)c(Cl)c7)C6(C)C)nc5)CC4)C3)cc1)=N[C@@H](Cc1ncco1)c1nnc(C)n1-2` [Compound I-564], for the setting “Homo sapiens, T47D, 72 h”, the GI50 was under 0.5 µM.

For `Cc1sc2c(c1C)C(c1ccc([C@H]3C[C@@H]3CC3CCCN(c4ncc(C(=O)N[C@H]5C(C)(C)[C@H](Oc6ccc(C#N)c(Cl)c6)C5(C)C)cn4)C3)cc1)=NC(Cc1ncco1)c1nnc(C)n1-2` (stereo partly drawn) [Compound I-495], the GI50 is under 0.5 µM. In the case of `Cc1sc2c(c1C)C(c1ccc(CC3CC4(CCN(c5ccc(C(=O)N[C@H]6C(C)(C)[C@H](Oc7ccc(C#N)c(Cl)c7)C6(C)C)cn5)CC4)C3)cc1)=NC1(CC1)c1nnc(C)n1-2` [Compound I-507], where the note is “Homo sapiens, T47D, 72 h”, the 50% growth inhibitory concentration (GI50) was under 0.5 µM. `Cc1sc2c(c1C)C(c1ccc(N3CC(CC4CN(c5ccc(C(=O)N[C@H]6C(C)(C)[C@H](Oc7ccc(C#N)c(Cl)c7)C6(C)C)nc5)C4)C3)cc1)=NC1(CC1)c1nnc(C)n1-2` [Compound I-531] had a 50% growth inhibitory concentration (GI50) (Homo sapiens, T47D, 72 h) of over 3 µM. For the setting “Homo sapiens, T47D, 72 h”, `Cc1sc2c(c1C)C(c1ccc(N3CC(CC4CN(c5ncc(C(=O)N[C@H]6C(C)(C)[C@H](Oc7ccc(C#N)c(Cl)c7)C6(C)C)cn5)C4)C3)cc1)=N[C@@H](Cc1ncco1)c1nnc(C)n1-2` [Compound I-562] came in with a GI50 of under 0.5 µM. Still for that read-out and setting: for `Cc1sc2c(c1C)C(c1ccc(CC3CC4(CCN(c5cnc(C(=O)N[C@H]6C(C)(C)[C@H](Oc7ccc(C#N)c(Cl)c7)C6(C)C)cn5)CC4)C3)cc1)=NC1(CC1)c1nnc(C)n1-2` [Compound I-520] the value was under 0.5 µM; for `Cc1sc2c(c1C)C(c1ccc(OC3CC4(C3)CC3(CCN(c5ccc(C(=O)N[C@H]6C(C)(C)[C@H](Oc7ccc(C#N)c(Cl)c7)C6(C)C)nc5)CC3)C4)cc1)=N[C@@H](C)c1nnc(C)n1-2` [Compound I-549], over 3 µM. Consider `Cc1sc2c(c1C)C(c1ccc(N3CC(C4CCN(c5ccc(C(=O)N[C@H]6C(C)(C)[C@H](Oc7ccc(C#N)c(Cl)c7)C6(C)C)nc5)CC4)C3)cc1)=NC1(CC1)c1nnc(C)n1-2` [Compound I-533], for which, under “Homo sapiens, T47D, 72 h”, the GI50 is 1.5 to 3 µM. As for `Cc1sc2c(c1C)C(c1ccc([C@H]3C[C@@H]3CC3CCCN(c4ncc(C(=O)N[C@H]5C(C)(C)[C@H](Oc6ccc(C#N)c(Cl)c6)C5(C)C)cn4)C3)cc1)=N[C@@H](Cc1ncco1)c1nnc(C)n1-2` (stereo partly drawn) [Compound I-493], the GI50 was 0.5 to 1.5 µM. Molecule `Cc1sc2c(c1C)C(c1ccc(N3CC(C4CCCC(Cc5ncc(C(=O)N[C@H]6C(C)(C)[C@H](Oc7ccc(C#N)c(Cl)c7)C6(C)C)cn5)C4)C3)cc1)=N[C@@H](Cc1ncco1)c1nnc(C)n1-2` (stereo partly drawn) [Compound I-580] yielded a GI50 of under 0.5 µM. The same measure, in the same setting: for `Cc1sc2c(c1C)C(c1ccc(C3CC3C3CC4(CCN(c5cnc(C(=O)N[C@H]6C(C)(C)[C@H](Oc7ccc(C#N)c(Cl)c7)C6(C)C)cn5)CC4)C3)cc1)=NC(Cc1ncco1)c1nnc(C)n1-2` (stereo partly drawn) [Compound I-539] the value was over 3 µM. As for `Cc1sc2c(c1C)C(c1ccc(OC3(C)CC4(CCN(c5ncc(C(=O)N[C@H]6C(C)(C)[C@H](Oc7ccc(C#N)c(Cl)c7)C6(C)C)cn5)CC4)C3)cc1)=N[C@@H](Cc1ncco1)c1nnc(C)n1-2` [Compound I-542], for the setting “Homo sapiens, T47D, 72 h”, the GI50 was over 3 µM. Turning to `Cc1sc2c(c1C)C(c1ccc(C3CC3C3CC4(CCN(c5cnc(C(=O)N[C@H]6C(C)(C)[C@H](Oc7ccc(C#N)c(Cl)c7)C6(C)C)cn5)CC4)C3)cc1)=N[C@@H](C)c1nnc(C)n1-2` (stereo partly drawn) [Compound I-536], the GI50 was over 3 µM.

Take `Cc1sc2c(c1C)C(c1ccc(N3CC(C4CCN(c5ccc(C(=O)N[C@H]6C(C)(C)[C@H](Oc7ccc(C#N)c(Cl)c7)C6(C)C)nc5)CC4)C3)cc1)=N[C@@H](C)c1nnc(C)n1-2` [Compound I-552]: the GI50 (Homo sapiens, T47D, 72 h) fell in the range of 1.5 to 3 µM. As to `Cc1sc2c(c1C)C(c1ccc(C3CC3C3CC4(CCN(c5ncc(C(=O)N[C@H]6C(C)(C)[C@H](Oc7ccc(C#N)c(Cl)c7)C6(C)C)cn5)CC4)C3)cc1)=N[C@@H](C)c1nnc(C)n1-2` (stereo partly drawn) [Compound I-556], the GI50 was over 3 µM. As to `Cc1sc2c(c1C)C(c1ccc(N3CC(C4CCN(c5cnc(C(=O)N[C@H]6C(C)(C)[C@H](Oc7ccc(C#N)c(Cl)c7)C6(C)C)cn5)CC4)C3)cc1)=NC1(CC1)c1nnc(C)n1-2` [Compound I-528], for the setting “Homo sapiens, T47D, 72 h”, the GI50 is over 3 µM. In the case of `Cc1sc2c(c1C)C(c1ccc(N3CC(CC4CCN(c5ccc(C(=O)N[C@H]6C(C)(C)[C@H](Oc7ccc(C#N)c(Cl)c7)C6(C)C)nc5)CC4)C3)cc1)=NC1(CC1)c1nnc(C)n1-2` [Compound I-529], under “Homo sapiens, T47D, 72 h”, the GI50 was over 3 µM. For the setting “Homo sapiens, T47D, 72 h”, `Cc1sc2c(c1C)C(c1ccc(CC3CC(C4CCCN(c5ncc(C(=O)N[C@H]6C(C)(C)[C@H](Oc7ccc(C#N)c(Cl)c7)C6(C)C)cn5)C4)C3)cc1)=N[C@@H](C)c1nnc(C)n1-2` (stereo partly drawn) [Compound I-488] had a GI50 of under 0.5 µM. `Cc1sc2c(c1C)C(c1ccc(N3CC(CC4CN(c5ccc(C(=O)N[C@H]6C(C)(C)[C@H](Oc7ccc(C#N)c(Cl)c7)C6(C)C)nc5)C4)C3)cc1)=N[C@@H](C)c1nnc(C)n1-2` [Compound I-515]: where the note is “Homo sapiens, T47D, 72 h”, the GI50 was under 0.5 µM.

In turn, `Cc1sc2c(c1C)C(c1ccc(N3CC4(CC(Cc5ncc(C(=O)N[C@H]6C(C)(C)[C@H](Oc7ccc(C#N)c(Cl)c7)C6(C)C)cn5)C4)C3)cc1)=N[C@@H](Cc1ncco1)c1nnc(C)n1-2` [Compound I-498] displayed a GI50 (Homo sapiens, T47D, 72 h) of 0.5 to 1.5 µM.
